Source: patent US20260223850A1, “SUBSTITUTED PYRROLIDONE COMPOUND, PREPARATION METHOD THEREFOR, COMPOSITION AND APPLICATION THEREOF” (QINGDAO KINGAGROOT CHEMICAL COMPOUND CO., LTD., priority 2023, published 2026)

Tests used:
Assay type in all cases: in vivo
Echinochloa crusgalli = assay: Seedling stage sealing experiment for water-seeding; settings: 120 g a.i./ha, 15 days, fresh weight control rate
Echinochloa phyllopogon = assay: as above; settings: 120 g a.i./ha, 15 days, fresh weight control rate
Method in brief: (§1)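 Pre-emergence spray on soil-covered seeds in moist bowls, rates 120/60/30/15 g a.i./ha, n = 3. Fresh-weight control graded 0–9 at day 15.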

Huaidao (rice cultivar) = assay: Seedling stage sealing experiment for water-seeding (crop safety); settings: 120 g a.i./ha, 15 days, fresh weight control rate; for Huaidao (rice cultivar) plant damage level: seedling stage sealing; for Huaidao (rice cultivar) plant damage level (growth control rate): spray, seedling stage sealing for water-seeding
Method in brief: as §1

[1] = spray, seedling stage sealing for water-seeding

Compound	Echinochloa crusgalli activity level (growth control rate) (Echinochloa crusgalli; seedling stage sealing)	Echinochloa phyllopogon activity level (growth control rate) (Echinochloa phyllopogon; seedling stage sealing)	Huaidao (rice cultivar) plant damage level (Huaidao (rice cultivar))	Echinochloa crusgalli activity level (growth control rate) (Echinochloa crusgalli; [1])	Echinochloa phyllopogon activity level (growth control rate) (Echinochloa phyllopogon; [1])	Huaidao (rice cultivar) plant damage level (growth control rate) (Huaidao (rice cultivar))
CCn1ncc(NC(=O)[C@H]2C(=O)N(C)C[C@@H]2c2cccc(C)c2)c1Cl [385′]	9	9	2 (Level 2: growth control rate greater than or equal to 10% and less than 20%)	–	–	–
COCCn1ncc(NC(=O)[C@H]2C(=O)N(C)C[C@@H]2c2cccc(C)c2)c1Cl [386′]	9	6 (Level 6: growth control rate greater than or equal to 70% and less than 80%)	0	–	–	–
Cc1cccc([C@H]2CN(C)C(=O)[C@@H]2C(=O)Nc2cnn(C)c2F)c1 [388′]	9	6 (Level 6: growth control rate greater than or equal to 70% and less than 80%)	0	–	–	–
Cc1cccc([C@H]2CN(C)C(=O)[C@@H]2C(=O)Nc2cnn(C)c2Br)c1 [389′]	9	9	0	–	–	–
Cc1cccc([C@H]2CN(C)C(=O)[C@@H]2C(=O)Nc2cnn(C)c2C#N)c1 [391′]	9	9	0	–	–	–
CCn1ncc(NC(=O)[C@H]2C(=O)N(C)C[C@@H]2c2cccc(C)c2)c1C1CC1 [394′]	9	6 (Level 6: growth control rate greater than or equal to 70% and less than 80%)	0	–	–	–
Cc1cccc([C@H]2CN(C)C(=O)[C@@H]2C(=O)Nc2cn(C)nc2I)c1 [399′]	9	9	0	–	–	–
C=Cc1c(NC(=O)[C@H]2C(=O)N(C)C[C@@H]2c2cccc(C(F)(F)F)c2)cnn1C(F)F [406′]	9	9	2 (Level 2: growth control rate greater than or equal to 10% and less than 20%)	–	–	–
C=C(C)c1c(NC(=O)[C@H]2C(=O)N(C)C[C@@H]2c2cccc(C(F)(F)F)c2)cnn1C [407′]	9	9	0	–	–	–
CCn1ncc(NC(=O)[C@H]2C(=O)N(C)C[C@@H]2c2cccc(C(F)(F)F)c2)c1C1CC1 [408′]	9	9	0	–	–	–
CN1C[C@H](c2cccc(C3CC3)c2)[C@@H](C(=O)Nc2cnn(C(F)F)c2Cl)C1=O [413′]	9	9	0	–	–	–
Cc1cc(C)cc([C@H]2CNC(=O)[C@@H]2C(=O)Nc2cnn(C)c2Cl)c1 [416′]	9	6 (Level 6: growth control rate greater than or equal to 70% and less than 80%)	0	–	–	–
Cc1cc(C)cc([C@H]2CN(C)C(=O)[C@@H]2C(=O)Nc2cnn(C(C)C)c2Cl)c1 [419′]	9	9	0	–	–	–
COCn1ncc(NC(=O)[C@H]2C(=O)N(C)C[C@@H]2c2cc(C)cc(C)c2)c1Cl [422′]	9	9	1 (Level 1: growth control rate less than 10%)	–	–	–
COCCn1ncc(NC(=O)[C@H]2C(=O)N(C)C[C@@H]2c2cc(C)cc(C)c2)c1Cl [423′]	9	6 (Level 6: growth control rate greater than or equal to 70% and less than 80%)	0	–	–	–
Cc1cc(C)cc([C@H]2CN(C)C(=O)[C@@H]2C(=O)Nc2cnn(C)c2I)c1 [426′]	9	9	0	–	–	–
Cc1cc(C)cc([C@H]2CN(C)C(=O)[C@@H]2C(=O)Nc2cnn(C)c2C(F)(F)F)c1 [427′]	9	9	2 (Level 2: growth control rate greater than or equal to 10% and less than 20%)	–	–	–
CCn1ncc(NC(=O)[C@H]2C(=O)N(C)C[C@@H]2c2cc(C)cc(C)c2)c1C1CC1 [432′]	9	9	0	–	–	–

Compound	Echinochloa crusgalli activity level (growth control rate) (Echinochloa crusgalli; seedling stage sealing)	Echinochloa phyllopogon activity level (growth control rate) (Echinochloa phyllopogon; seedling stage sealing)	Huaidao (rice cultivar) plant damage level (Huaidao (rice cultivar))	Echinochloa crusgalli activity level (growth control rate) (Echinochloa crusgalli; [1])	Echinochloa phyllopogon activity level (growth control rate) (Echinochloa phyllopogon; [1])	Huaidao (rice cultivar) plant damage level (growth control rate) (Huaidao (rice cultivar))
COC(=O)c1c(NC(=O)[C@H]2C(=O)N(C)C[C@@H]2c2cc(C)cc(C)c2)cnn1C [433′]	9	6 (Level 6: growth control rate greater than or equal to 70% and less than 80%)	0	–	–	–
CCc1cc(C)cc([C@H]2CN(C)C(=O)[C@@H]2C(=O)Nc2cnn(C(F)F)c2Cl)c1 [438′]	9	9	2 (Level 2: growth control rate greater than or equal to 10% and less than 20%)	–	–	–
CCc1cc(CC)cc([C@H]2CN(C)C(=O)[C@@H]2C(=O)Nc2cnn(C)c2Cl)c1 [439′]	9	9	2 (Level 2: growth control rate greater than or equal to 10% and less than 20%)	–	–	–
CN1C[C@H](c2cc(Br)cc(Br)c2)[C@@H](C(=O)Nc2cnn(C)c2Cl)C1=O [440′]	9	9	0	–	–	–
CN1C[C@H](c2cc(Cl)cc(Cl)c2)[C@@H](C(=O)Nc2cnn(C)c2Cl)C1=O [441′]	9	9	0	–	–	–
CN1C[C@H](c2cc(Cl)cc(Cl)c2)[C@@H](C(=O)Nc2cnn(C(F)F)c2Cl)C1=O [442′]	8 (Level 8: growth control rate greater than or equal to 90% and less than 100%)	8 (Level 8: growth control rate greater than or equal to 90% and less than 100%)	0	–	–	–
CN1C[C@H](c2cc(Cl)cc(Cl)c2)[C@@H](C(=O)Nc2cnn(C)c2C2CC2)C1=O [443′]	–	–	–	9	8 (Level 8: growth control rate greater than or equal to 90% and less than 100%)	0
COc1cc([C@H]2CN(C)C(=O)[C@@H]2C(=O)Nc2cnn(C(F)F)c2Cl)cc(C(F)(F)F)c1 [445′]	–	–	–	9	9	0
COc1c(C(F)(F)F)ccc([C@H]2CN(C)C(=O)[C@@H]2C(=O)Nc2cnn(C)c2Cl)c1F [446′]	–	–	–	9	9	0
Cc1cc([C@H]2CN(C)C(=O)[C@@H]2C(=O)Nc2cnn(C)c2Cl)cc(C)c1C [447′]	–	–	–	9	9	0
Cc1cc([C@H]2CN(C)C(=O)[C@@H]2C(=O)Nc2cnn(C)c2C2CC2)cc(C)c1C [448′]	–	–	–	9	9	0
CN1C[C@H](c2cccc3c2OC(F)(F)O3)[C@@H](C(=O)Nc2cnn(C)c2Cl)C1=O [450′]	–	–	–	9	9	0
CCCn1ncc(NC(=O)[C@H]2C(=O)N(C)C[C@@H]2c2cccc(C)c2)c1Cl [462′]	–	–	–	9	9	0
Cc1cccc([C@H]2CN(C)C(=O)[C@@H]2C(=O)Nc2cnn(C(F)F)c2C)c1 [465′]	–	–	–	9	9	2 (Level 2: growth control rate greater than or equal to 10% and less than 20%)
C=Cc1c(NC(=O)[C@H]2C(=O)N(C)C[C@@H]2c2cccc(C)c2)cnn1C(F)F [468′]	–	–	–	9	9	0
CN1C[C@H](c2cccc(C(F)(F)F)c2)[C@@H](C(=O)Nc2cnn(C)c2C(F)F)C1=O [478′]	–	–	–	9	9	0
CN1C[C@H](c2cccc(C(F)(F)F)c2)[C@@H](C(=O)Nc2cnn(C)c2S(C)(=O)=O)C1=O [480′]	–	–	–	9	9	1 (Level 1: growth control rate less than 10%)
COc1cccc([C@H]2CN(C)C(=O)[C@@H]2C(=O)Nc2cnn(C)c2C(F)(F)F)c1 [485′]	–	–	–	9	9	0
